Test results as given in PMC2784108 (Bioorganic & medicinal chemistry, 2009).

Columns and labels:
HDM2(11–119) = HDM2(11–119) (Homo sapiens, UniProt Q00987); experiment: Fluorescence anisotropy competition, HDM2 binding to fluorescein-labeled p53
GST-HDMX(1–188) = biological target: T1, GST-HDMX(1–188) (Homo sapiens, UniProt O15151); experiment: Fluorescence anisotropy competition, HDMX binding to fluorescein-labeled p53
T1 sequence (O15151 1-188): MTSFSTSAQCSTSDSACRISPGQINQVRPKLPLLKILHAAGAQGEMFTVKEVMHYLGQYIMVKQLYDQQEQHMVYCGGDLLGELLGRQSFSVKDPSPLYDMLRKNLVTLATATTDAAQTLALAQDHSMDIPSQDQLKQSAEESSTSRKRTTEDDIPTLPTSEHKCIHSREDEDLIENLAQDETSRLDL

[1] = compared with derivative with hydrogen at position Y (NAPA 5)
[2] = bromine at position Y replaced with methyl, compared with NAPA 9

| inhibition of HDM2-p53 binding (in words) (HDM2(11–119)) | inhibition of HDMX-p53 binding (in words) (GST-HDMX(1–188)) | Compound | other results |
| --- | --- | --- | --- |
| – | – | CC(C)CCCNC(=O)N(CC(CCC(=O)O)NC(N)=O)C(CCCCN)CN(C(=O)NCCc1ccc(Br)cc1)C(CCC(=O)O)CN(CCC(N)=O)C(=O)NCCCc1ccc(Br)cc1 (stereo not drawn) [NAPA 9] | inhibition of HDM2 binding with p53 relative to NAPA 5 (HDM2(11–119); [1]): two to four times better; inhibition of HDMX binding with p53 relative to NAPA 5 (GST-HDMX(1–188); [1]): two to four times better |
| – | – | Cc1ccc(CCCNC(=O)N(CCC(N)=O)CC(CCC(=O)O)N(CC(CCCCN)N(CC(CCC(=O)O)NC(N)=O)C(=O)NCCCC(C)C)C(=O)NCCc2ccc(Br)cc2)cc1 (stereo not drawn) [NAPA 10] | activity against HDM2 relative to NAPA 9 (HDM2(11–119); [2]): decreased by three times; inhibitory activity towards HDMX relative to NAPA 9 (GST-HDMX(1–188); [2]): did not significantly affect |
| modest inhibition | modest inhibition | CC(C)CCCCNC(=O)N(CC(CCC(=O)O)NC(N)=O)C(CCCCN)CN(C(=O)NCCc1ccc(Br)cc1)C(CCC(=O)O)CN(CCC(N)=O)C(=O)NCCCc1ccc(Br)cc1 (stereo not drawn) [NAPA 13] | – |
| negative impact on inhibitory activity | negative impact on inhibitory activity | CC(C)CCC(=O)N[C@@H](CCCC(=O)O)CN(C(=O)NCCCC1CCCCC1)[C@@H](CCCCN)CN(C(=O)NCCc1ccc(Br)cc1)[C@@H](CCCC(=O)O)CN(CCC(N)=O)C(=O)NCCCc1ccc(F)cc1 [NAPA 34] | – |
| eliminated all inhibitory activity | eliminated all inhibitory activity | NCCCC[C@@H](CN(C(=O)NCCCC1CCCCC1)[C@@H](CCCCN)CN(C(=O)NCCc1ccc(Br)cc1)[C@@H](CCCCN)CN(CCC(N)=O)C(=O)NCCCc1ccc(F)cc1)NC(N)=O [NAPA 35] | – |
| no inhibitory activity | no inhibitory activity | CC(C)CCC(=O)NC(CCC(=O)O)CN(CCC1CCC2(CCCCC2)CC1)C(CCCCN)CN(CCCCc1ccc(Br)cc1)[C@@H](CCC(=O)O)CN(CCCCCc1ccc(F)cc1)CCC(N)=O (stereo partly drawn) [NAPA 36] | – |
